Columns and labels:
[1] = tested on: calf lumbar spinal discs; assay: Diffusion study in calf lumbar spinal discs (area of diffusion zone, ImageJ); details: 0.1% (w/v) SDS in PBS, 1 hr, 37° C.; p=0.021
Method: FIG. 12—Diffusion kinetics of genipin and BSA in calf lumbar spinal discs. 200 μl of 0.33% (w/v) or 1 mg/ml BSA-Texas Red were injected at a depth of 1 cm into the discs of individual calf lumbar motion segments and incubated for 1, 3 or 6 hours at 37° C. Samples were transected and the area of each diffusion zone at each time point and for each reagent was determined from photographs using ImageJ software.
FIG. 13—Effect of surfactants on the diffusion of GP and BSA-TR. 200 μl of 0.33% (w/v) or 1 mg/ml BSA-Texas Red formulated in PBS in the absence of presence of 0.1% (w/v) of either Tween-20 or SDS were injected at a depth of 1 cm into the discs of individual calf lumbar motion segments. Segments were incubated for 1 hr at 37° C. and the samples were then transected and the area of each diffusion zone determined from photographs using ImageJ software.
In order to observe the diffusion kinetics of these markers, GP (0.33% (w/v)) or BSA-TR (1 mg/ml) were dissolved in PBS and 200 μl injected at a depth of 1 cm into the discs of individual calf lumbar motion segments and incubated at 37° C. for 1, 3 or 6 hrs in sealed ZipLoc bags containing a sheet of paper towel moistened with H2O. […] In some cases, however, diffusion zones merged and were not possible to quantify and in subsequent experiments injections were limited to the left and right lateral regions. […]

[2] = tested on: lumbar intervertebral joints (posterior annulus); assay: Indentation testing (stress relaxation, hardness) with compression/flexion fatigue cycling; details: soaking the calf disc tissue in 0.33% concentration of genipin
Source text: Thirty-three lumbar intervertebral joints were obtained from ten four-month-old calf spines. The intervertebral joints were arbitrarily divided into 3 groups: untreated controls-12 specimens, Genipin treatment 1 (G1)-6 specimens, and Genipin treatment 2 (G2)-13 specimens. The G1 treatment involved 72 hrs of soaking the whole specimen in PBS with a 0.033% concentration of Genipin. Similarly, the G2 treatment involved 72 hrs of soaking whole specimens in PBS with 0.33% concentration of Genipin. 0.33% Genipin in PBS is produced by dilution of 50 ml of 10×. PBS (Phosphate Buffered Saline) with distilled water by a factor of 10 to give 500 ml (500 gm) of PBS and mixing in 1.65 grams of genipin to produce the 0.33% (wt %, gm/gm) solution. […] Some controls were not subjected to soaking prior to fatigue testing. Others were soaked in a saline solution for 72 hrs. Water mass loss experiments were conducted to establish the equivalency of outer annulus hydration between the genipin soaked and 0.9% saline soaked controls. The selection of treatments was randomized by spine and level. […]
Following initial indentation testing, the specimen was loaded repetitively in flexion-compression at 200 N for 3000 cycles at a rate of 0.25 Hz. […] Several statistical measures were calculated to evaluate the significance of the results. […]

[3] = tested on: homogenized annulus tissue; details: bovine
Method: Increasing concentrations of protein crosslinkers were added to homogenized annulus tissue and incubated for either 1 hr (EDC, GP, MG, PA and GA), 2 hrs (TG) or 6 hrs (DT and LT). Crosslinking was quantified by determining the amount of hydroxyproline (HYP) released from the tissue by collagenase digestion.
Homogenized annulus tissue was treated with sub-saturating concentrations of various crosslinkers at varying pH and incubated for either 1 hr (EDC, GP, MG, PA and GA), 2 hrs (TG) or 6 hrs (LT). Crosslinking was quantified by determining the amount of hydroxyproline (HYP) released from the tissue by collagenase digestion.
In order to determine the effective concentration range for various crosslinking reagents we incubated samples of annulus tissue in increasing concentrations of either genipin (GP), methylglyoxal (MG), proanthrocyanidin (PA), L-threose (LT), D-threose (DT), dimethylaminopropyl) carbodiimide hydrochloride (EDC) or transglutaminase (TG). Crosslinking efficiency was measured indirectly by monitoring the release of peptides containing hydroxyproline upon subsequent digestion with collagenase. Glutaraldehyde (GA), a commonly used, but highly toxic protein crosslinker was used as a positive control.
To test this hypothesis, the inventors subjected calf annulus fibrosus tissue to crosslinking with sub-saturating levels of our reagents at varying pH. In order to maintain optimal buffering capacity at each pH, different buffers were selected for each point.

[4] = tested on: annulus fibrosus specimens from bovine lumbar intervertebral discs; assay: Tear resistance of annulus fibrosus (radial tear propagation); details: soaked two days in 0.15M PBS plus 0.33% genipin
Source text: Ten annulus fibrosus circumferentially aligned specimens from bovine lumbar (T12-L5) intervertebral discs were divided into two groups and either soaked two days in a 0.15M PBS or a 0.15M PBS plus 0.33% genipin solution. A custom loading fixture attached to a uniaxial materials testing system was designed to hold an annulus specimen perpendicular to the travel of a metal cylinder placed in a pre-existing radial cut. The cylinder was then pulled radially (perpendicular to lamellae) towards the external layer. Time dependent force and displacement data was acquired simultaneously. Tearing resistance was quantified in two ways: peak force normalized by specimen thickness and tearing energy per area of tear. Differences between groups were analyzed using the Mann-Whitney non-parametric test.

T1/2 [3]: 10 to 18 min
Compound: COC(=O)C1=CO[C@@H](O)[C@@H]2C(CO)=CC[C@H]12 [Genipin, genipin]
enhancement of diffusion by SDS [1]: approximately 30%
reduction in viscoelastic degradation [2]: More than a three-fold reduction
Total energy per area of tear ([4]; p=0.047 vs control): 40.2 mJ/mm^2
Normalized peak force ([4]; p=0.076 vs control): 42.7 N/mm
